Results as given in patent US20260306640A1, “TECHNOLOGIES TARGETING CELL STATES” (Auron Therapeutics, Inc., priority 2023, published 2026).

Legend:
KAT2B = KAT2B (Homo sapiens, UniProt Q92831); assay: KAT2B degradation, Western Blot (Jess), NCI-H1048 cells; assay type: cell-based; parameters: degrader, Western blot (Jess); details: NCI-H1048 cells, KAT2B, 24 h, Western Blot, vs DMSO; read-out: KAT2B NCI-H1048 DC50
Procedure: (§1) MOLM-13 cells or NCI-H1048 cells were used for Western Blot analysis of KAT2A degradation. KAT2B degradation can be measured in a similar manner with NCI-H1048 cells.
(§2) H1048 cells were maintained at 37° C. in 5% CO2 and 90% humidity in HITES medium with 5% fetal bovine serum (FBS). HITES medium was […] with the following additions: 0.005 mg/ml Insulin, 0.01 mg/ml Transferrin, 30 nM Sodium selenite, 10 nM Hydrocortisone, 10 nM beta-estradiol, and extra 2 mM L-glutamine (for final concentration of 4.5 mM). Cells were plated in full media at 1 million cells/2 mL in a 6-well tissue culture treated plate with or without compounds for 24 h at 37° C. in 5% CO2.
(§3) MOLM-13 cells or NCI-H1048 cells were washed with PBS, then lysed with RIPA buffer containing 1×protease and phosphatase inhibitors (SantaCruz Biotechnologies Cat #sc-24948A). Protein was isolated by centrifugation at 12,000×g for 10 minutes at 4° C. and supernatant was collected. Protein was quantified via Bradford assay. Samples were diluted to 4 μg lysate in 16 μL RIPA buffer and then 4 μL of Jess Sample Buffer. Samples were heated at 95° C. for 5 minutes. Samples were loaded onto 12-230 kDa Jess™ Separation Module, 8×25 capillary cartridges (SM-W004, Biotechne). Antibodies loaded were: Primary antibody for KAT2A (GCN5L2 (C26A10) Rabbit mAb (3305, CST)) and for KAT2B (PCAF (C14G9)) Rabbit mAb (3378, CST) at 1:1000 and Anti-Rabbit Detection Module for Jess™ (Cat No #DM-001, Biotechne). Signal was detected by chemiluminescence.
(§4) DC50 values were determined from percent reduction of protein as compared to the DMSO control.

KAT2A = KAT2A (Homo sapiens, UniProt Q92830); assay: KAT2A degradation, Western Blot (Jess), NCI-H1048 cells; assay type: cell-based; parameters: degrader, Western blot (Jess); details: NCI-H1048 cells, KAT2A, 24 h, Western Blot, vs DMSO; read-out: KAT2A NCI-H1048 DC50
Chain of KAT2A (Q92830 whole entry): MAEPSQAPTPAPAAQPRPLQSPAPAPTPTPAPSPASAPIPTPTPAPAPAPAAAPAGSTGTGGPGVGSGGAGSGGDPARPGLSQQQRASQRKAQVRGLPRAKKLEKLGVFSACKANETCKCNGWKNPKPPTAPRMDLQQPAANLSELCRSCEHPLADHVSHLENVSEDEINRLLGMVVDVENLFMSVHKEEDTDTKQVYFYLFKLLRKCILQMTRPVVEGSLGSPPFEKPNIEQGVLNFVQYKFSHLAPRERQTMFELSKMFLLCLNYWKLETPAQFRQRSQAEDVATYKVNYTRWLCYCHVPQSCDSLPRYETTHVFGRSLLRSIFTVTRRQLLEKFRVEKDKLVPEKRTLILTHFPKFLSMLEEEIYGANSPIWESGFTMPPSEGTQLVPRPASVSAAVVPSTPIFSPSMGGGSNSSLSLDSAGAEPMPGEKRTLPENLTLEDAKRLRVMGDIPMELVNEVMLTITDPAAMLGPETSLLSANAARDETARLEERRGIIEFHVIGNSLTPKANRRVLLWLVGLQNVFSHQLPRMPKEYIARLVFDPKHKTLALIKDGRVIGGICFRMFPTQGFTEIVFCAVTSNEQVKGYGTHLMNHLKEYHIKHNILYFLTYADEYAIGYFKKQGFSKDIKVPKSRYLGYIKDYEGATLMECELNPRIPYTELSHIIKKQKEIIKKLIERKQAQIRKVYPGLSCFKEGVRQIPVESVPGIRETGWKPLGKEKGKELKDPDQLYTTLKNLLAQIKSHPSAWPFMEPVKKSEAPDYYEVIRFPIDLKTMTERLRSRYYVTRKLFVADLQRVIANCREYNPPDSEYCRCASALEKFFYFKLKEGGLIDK
Procedure: as §1, §2, §3, §4

Chain of KAT2B (Q92831 whole entry): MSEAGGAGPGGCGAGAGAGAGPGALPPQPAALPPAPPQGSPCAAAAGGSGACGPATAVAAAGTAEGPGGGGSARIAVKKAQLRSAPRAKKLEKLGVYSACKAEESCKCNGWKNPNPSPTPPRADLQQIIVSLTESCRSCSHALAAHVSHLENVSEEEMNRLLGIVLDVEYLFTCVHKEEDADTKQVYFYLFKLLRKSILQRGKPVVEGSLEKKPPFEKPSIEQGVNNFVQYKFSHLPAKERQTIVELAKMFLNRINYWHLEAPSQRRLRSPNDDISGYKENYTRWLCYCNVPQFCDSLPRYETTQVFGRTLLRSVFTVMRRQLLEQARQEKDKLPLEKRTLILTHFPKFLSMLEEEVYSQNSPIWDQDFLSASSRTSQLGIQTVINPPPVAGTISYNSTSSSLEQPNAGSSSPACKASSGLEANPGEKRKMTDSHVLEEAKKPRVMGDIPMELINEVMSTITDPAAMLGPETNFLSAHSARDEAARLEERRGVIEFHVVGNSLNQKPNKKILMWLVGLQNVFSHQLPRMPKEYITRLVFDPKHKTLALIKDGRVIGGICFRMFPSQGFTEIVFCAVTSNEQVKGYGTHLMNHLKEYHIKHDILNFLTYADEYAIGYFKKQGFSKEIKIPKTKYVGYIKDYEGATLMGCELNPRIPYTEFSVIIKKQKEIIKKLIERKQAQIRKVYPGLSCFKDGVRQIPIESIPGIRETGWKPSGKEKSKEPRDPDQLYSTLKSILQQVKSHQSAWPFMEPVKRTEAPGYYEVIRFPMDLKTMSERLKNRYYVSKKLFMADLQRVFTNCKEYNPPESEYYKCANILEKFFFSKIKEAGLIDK

CN1C[C@H](Nc2cnn(C)c(=O)c2Br)C[C@H](c2ccc(C(=O)N3CCC4(CC3)CCN(c3ccc(C5CCC(=O)NC5=O)cc3)CC4)cc2)C1 (single isomer, unassigned) [Compound 239]
DC50 (KAT2B): < 1 nM
DC50 (KAT2A): < 1 nM

Cc1cc(N2CCC3(CCN(C(=O)c4ccc([C@H]5C[C@@H](Nc6cnn(C)c(=O)c6Br)CN(C)C5)cc4)CC3)CC2)cc(F)c1C1CCC(=O)NC1=O (some centres unmarked) [Compound 2-69]
DC50 (KAT2B): < 1 nM
DC50 (KAT2A): < 1 nM

CN1C[C@H](Nc2cnn(C)c(=O)c2Br)C[C@H](c2ccc(C(=O)N3CCC4(CC3)CCN(c3cccc5c3C(=O)N(C3CCC(=O)NC3=O)C5=O)CC4)cc2)C1 (some centres unmarked) [Compound 17]
DC50 (KAT2B): 1 to 30 nM
DC50 (KAT2A): 1 to 30 nM

CN1C[C@H](Nc2cnn(C)c(=O)c2Br)C[C@H](c2ccc(C(=O)N3CC(c4ccc(C5CCC(=O)NC5=O)cc4)C3)cc2)C1 (some centres unmarked) [Compound 189]
DC50 (KAT2B): > 30 nM
DC50 (KAT2A): 1 to 30 nM

CN1C[C@H](Nc2cnn(C)c(=O)c2Br)C[C@H](c2ccc(CN3CC(c4cccc(C5CCC(=O)NC5=O)c4)C3)cc2)C1 (some centres unmarked) [Compound 190]
DC50 (KAT2B): > 30 nM
DC50 (KAT2A): 1 to 30 nM

CN1C[C@H](Nc2cnn(C)c(=O)c2Br)C[C@H](c2ccc(C(=O)N3CC(c4cccc(C5CCC(=O)NC5=O)c4)C3)cc2)C1 (some centres unmarked) [Compound 191]
DC50 (KAT2B): > 30 nM
DC50 (KAT2A): 1 to 30 nM

Cc1c(N[C@@H]2C[C@H](c3ccc(COc4ccc5c(c4)C(=O)N(C4CCC(=O)NC4=O)C5=O)cc3)CN(C)C2)cnn(C)c1=O (some centres unmarked) [Compound 192]
DC50 (KAT2B): > 30 nM
DC50 (KAT2A): < 1 nM

CN1C[C@H](Nc2cnn(C)c(=O)c2Cl)C[C@H](c2ccc(C(=O)N3CC(c4cccc(C5CCC(=O)NC5=O)c4)C3)cc2)C1 (some centres unmarked) [Compound 193]
DC50 (KAT2B): > 30 nM
DC50 (KAT2A): 1 to 30 nM

CN1C[C@H](Nc2cnn(C)c(=O)c2Cl)C[C@H](c2ccc(CN3CC(c4cccc(C5CCC(=O)NC5=O)c4)C3)cc2)C1 (some centres unmarked) [Compound 194]
DC50 (KAT2B): > 30 nM
DC50 (KAT2A): 1 to 30 nM

CN1C[C@H](Nc2cnn(C)c(=O)c2Br)C[C@H](c2ccc(CN3CC(c4ccc(C5CCC(=O)NC5=O)cc4)C3)cc2)C1 (some centres unmarked) [Compound 195]
DC50 (KAT2B): > 30 nM
DC50 (KAT2A): 1 to 30 nM

CN1C[C@H](Nc2cnn(C)c(=O)c2Br)C[C@H](c2ccc(CN3CCN(c4cccc5c4oc(=O)n5C4CCC(=O)NC4=O)CC3)cc2)C1 (some centres unmarked) [Compound 196]
DC50 (KAT2B): < 1 nM
DC50 (KAT2A): < 1 nM

CN1C[C@H](Nc2cnn(C)c(=O)c2Br)C[C@H](c2ccc(C(=O)N3CC(c4ccc5c(c4)C(=O)N(C4CCC(=O)NC4=O)C5=O)C3)cc2)C1 (some centres unmarked) [Compound 197]
DC50 (KAT2B): > 30 nM
DC50 (KAT2A): 1 to 30 nM

CN1C[C@H](Nc2cnn(C)c(=O)c2Cl)C[C@H](c2ccc(C(=O)N3CC(c4ccc5c(c4)C(=O)N(C4CCC(=O)NC4=O)C5=O)C3)cc2)C1 (some centres unmarked) [Compound 198]
DC50 (KAT2B): > 30 nM
DC50 (KAT2A): 1 to 30 nM

CN1C[C@H](Nc2cnn(C)c(=O)c2Cl)C[C@H](c2ccc(CN3CC(c4ccc5c(c4)C(=O)N(C4CCC(=O)NC4=O)C5=O)C3)cc2)C1 (some centres unmarked) [Compound 199]
DC50 (KAT2B): > 30 nM
DC50 (KAT2A): > 30 nM

CN1C[C@H](Nc2cnn(C)c(=O)c2Br)C[C@H](c2ccc(CN3Cc4cc5c(cc4C3)C(=O)N(C3CCC(=O)NC3=O)C5=O)cc2)C1 (some centres unmarked) [Compound 200]
DC50 (KAT2B): > 30 nM
DC50 (KAT2A): 1 to 30 nM

CN1C[C@H](Nc2cnn(C)c(=O)c2Br)C[C@H](c2ccc(C(=O)N3CCN(c4cccc5c4oc(=O)n5C4CCC(=O)NC4=O)CC3)cc2)C1 (some centres unmarked) [Compound 201]
DC50 (KAT2B): 1 to 30 nM
DC50 (KAT2A): < 1 nM

CN1C[C@H](Nc2cnn(C)c(=O)c2Br)C[C@H](c2ccc(CN3CC(c4ccc5c(c4)C(=O)N(C4CCC(=O)NC4=O)C5=O)C3)cc2)C1 (some centres unmarked) [Compound 202]
DC50 (KAT2B): > 30 nM
DC50 (KAT2A): 1 to 30 nM

CN1C[C@H](Nc2cnn(C)c(=O)c2Cl)C[C@H](c2ccc(C(=O)N3CCC(Oc4ccc(C5CCC(=O)NC5=O)c(F)c4)CC3)cc2)C1 (some centres unmarked) [Compound 203]
DC50 (KAT2B): 1 to 30 nM
DC50 (KAT2A): < 1 nM

CN1C[C@H](Nc2cnn(C)c(=O)c2Br)C[C@H](c2ccc(C(=O)N3CCN(C4CCC(N5CCC(=O)NC5=O)CC4)CC3)cc2)C1 (some centres unmarked) [Compound 204]
DC50 (KAT2B): > 30 nM
DC50 (KAT2A): > 30 nM

CN1C[C@H](Nc2cnn(C)c(=O)c2Br)C[C@H](c2ccc(C(=O)N3CCN(Cc4cnn(C5CCC(=O)NC5=O)c4)CC3)cc2)C1 (some centres unmarked) [Compound 205]
DC50 (KAT2B): > 30 nM
DC50 (KAT2A): > 30 nM

Cc1c(C2CCC(=O)NC2=O)ccc(N2CCC3(CCN(C(=O)c4ccc([C@H]5C[C@@H](Nc6cnn(C)c(=O)c6Cl)CN(C)C5)cc4)CC3)CC2)c1F (some centres unmarked) [Compound 253]
DC50 (KAT2A): < 1 nM

COc1cc(N2CCC3(CCN(C(=O)c4ccc([C@H]5C[C@@H](Nc6cnn(C)c(=O)c6Br)CN(C)C5)cc4)CC3)CC2)cc(F)c1C1CCC(=O)NC1=O (some centres unmarked) [Compound 280]
DC50 (KAT2A): 1 to 30 nM

COc1cc(N2CCC3(CCN(C(=O)c4ccc([C@H]5C[C@@H](Nc6cnn(C)c(=O)c6Cl)CN(C)C5)cc4)CC3)CC2)cc(F)c1C1CCC(=O)NC1=O (some centres unmarked) [Compound 281]
DC50 (KAT2A): 1 to 30 nM

Cc1cc(N2CCC3(CCN(C(=O)c4ccc([C@H]5C[C@@H](Nc6cnn(C)c(=O)c6Br)CN(C)C5)cc4)CC3)CC2)cc(C)c1C1CCC(=O)NC1=O (some centres unmarked) [Compound 282]
DC50 (KAT2A): < 1 nM

CN1C[C@H](Nc2cnn(C)c(=O)c2Br)C[C@H](c2ccc(CN3CCN(c4cncc(C5CCC(=O)NC5=O)c4)CC3)cc2)C1 (some centres unmarked) [Compound 345]
DC50 (KAT2A): > 30 nM

C[C@@H]1CN(c2cccc(C3CCC(=O)NC3=O)c2)C[C@H](C)N1Cc1ccc([C@H]2C[C@@H](Nc3cnn(C)c(=O)c3Br)CN(C)C2)cc1 (some centres unmarked) [Compound 370]
DC50 (KAT2A): 1 to 30 nM

C[C@@H]1CN(c2cccc(C3CCC(=O)NC3=O)c2)C[C@H](C)N1Cc1ccc([C@H]2C[C@@H](Nc3cnn(C)c(=O)c3Cl)CN(C)C2)cc1 (some centres unmarked) [Compound 371]
DC50 (KAT2A): 1 to 30 nM

CN1C[C@H](Nc2cnn(C)c(=O)c2Br)C[C@H](c2ccc(C(=O)N3CCC4(CC3)CCN(c3ccc5c(N6CCC(=O)NC6=O)cncc5c3)CC4)cc2)C1 [Compound 375]
DC50 (KAT2A): 1 to 30 nM

CN1C[C@H](Nc2cnn(C)c(=O)c2Cl)C[C@H](c2ccc(CN3CCC(c4ccc5c(c4)C(=O)N(C4CCC(=O)NC4=O)C5=O)C(F)(F)C3)cc2)C1 (some centres unmarked) [Compound 392]
DC50 (KAT2A): 1 to 30 nM

CN1C[C@H](Nc2cnn(C)c(=O)c2Cl)C[C@H](c2ccc(CN3CCN(c4cccc(CN5CCC(=O)NC5=O)c4)CC3)cc2)C1 [Compound 393]
DC50 (KAT2A): > 30 nM

CN1C[C@H](Nc2cnn(C)c(=O)c2Br)C[C@H](c2ccc(N3CCC4(CC3)CCN(c3cccc(CN5CCC(=O)NC5=O)c3)CC4)cc2)C1 [Compound 400]
DC50 (KAT2A): 1 to 30 nM

CC(=O)N[C@H](C(=O)N1C[C@H](O)C[C@H]1C(=O)NCc1ccc(-c2scnc2C)cc1OCCCCNC(=O)c1ccc([C@H]2C[C@@H](Nc3cnn(C)c(=O)c3Br)CN(C)C2)cc1)C(C)(C)C [Compound 406, (2S,4R)-1-((S)-2-acetamido-3,3-dimethylbutanoyl)-N-(2-(4-(4-((3R,5R)-5-((5-bromo-1-methyl-6-oxo-1,6-dihydropyridazin-4-yl)amino)-1-methylpiperidin-3-yl)benzamido)-butoxy)-4-(4-methylthiazol-5-yl)benzyl)-4-hydroxypyrrolidine-2-carboxamide]
DC50 (KAT2A): > 30 nM

Cc1ncsc1-c1ccc(CNC(=O)[C@@H]2C[C@@H](O)CN2C(=O)[C@@H](NC(=O)C2CCN(C3CCN(C(=O)c4ccc([C@H]5C[C@@H](Nc6cnn(C)c(=O)c6Br)CN(C)C5)cc4)CC3)CC2)C(C)(C)C)cc1 [Compound 410]
DC50 (KAT2B): > 30 nM

Cc1nnc2c3ccccc3c(N[C@@H](C)[C@H](c3ccc(C(=O)N4CCC5(CC4)CCN(c4ccc(C6CCC(=O)NC6=O)cc4)CC5)cc3)N(C)C)nn12 (stereo partly drawn) [Compound 426, 3-(4-(9-(4-((1S,2S)-1-(dimethylamino)-2-((3-methyl-[1,2,4]triazolo[3,4-a]phthalazin-6-yl)amino)propyl)benzoyl)-3,9-diazaspiro[5.5]undecan-3-yl)phenyl)piperidine-2,6-dione]
DC50 (KAT2A): 1 to 30 nM

Cc1nnc2c3ccccc3c(N[C@@H](C)[C@H](c3ccc(CN4CCN(c5cccc(C6CCC(=O)NC6=O)c5)CC4)cc3)N(C)C)nn12 (stereo partly drawn) [Compound 428, 3-(3-(4-(4-((1S,2S)-1-(dimethylamino)-2-((3-methyl-[1,2,4]triazolo[3,4-a]phthalazin-6-yl)amino)propyl)benzyl)piperazin-1-yl)phenyl)piperidine-2,6-dione]
DC50 (KAT2A): > 30 nM

C[C@H](Nc1nn(C)c(=O)n(C)c1=O)[C@H](c1ccc(C(=O)N2CCC3(CC2)CCN(c2ccc(C4CCC(=O)NC4=O)cc2)CC3)cc1)N(C)C (stereo partly drawn) [Compound 431, 6-(((1S,2S)-1-(dimethylamino)-1-(4-(9-(4-(2,6-dioxopiperidin-3-yl)phenyl)-3,9-diazaspiro[5.5]undecane-3-carbonyl)phenyl)propan-2-yl)amino)-2,4-dimethyl-1,2,4-triazine-3,5(2H,4H)-dione]
DC50 (KAT2A): 1 to 30 nM
